# What was measured:
# barnyardgrass = experiment: Test A postemergence; type: in vivo, Echinochloa crus-galli; conditions: 0 to 100 scale where 0 is no effect and 100 is complete control; for pest or weed control at 125 g/ha / pest or weed control at 500 g/ha: Echinochloa crus-galli, post-emergence, 240 h; for pest or weed control at 125 g/ha: read-out: Barnyardgrass plant response rating; for pest or weed control at 500 g/ha: read-out: Plant response rating, Barnyardgrass
# Outline: (§1)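 Compounds in non-phytotoxic solvent with surfactant applied as soil spray preemergence, or postemergence to plants 2-10 cm at one- to two-leaf stage, in loam/sand. After approximately 10 days in greenhouse, injury rated visually versus untreated controls, 0 (no effect) to 100 (complete control).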
# wheat = experiment: Test A postemergence; type: in vivo, Triticum aestivum; conditions: 0 to 100 scale where 0 is no effect and 100 is complete control; for plant injury at 125 g/ha / plant injury at 500 g/ha: Triticum aestivum, post-emergence, 240 h; for plant injury at 125 g/ha: read-out: Wheat plant response rating; for plant injury at 500 g/ha: read-out: Plant response rating, Wheat
# Outline: as §1
# Heteranthera limosa = experiment: Test B flooded paddy test; type: in vivo; conditions: Flood, 250 g ai/ha, 0 to 100 scale where 0 is no effect and 100 is complete control; for pest or weed control at 250 g/ha: Heteranthera limosa, read-out: Plant response rating, Ducksalad
# Outline: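 Flooded to 3 cm at the 2-leaf stage, pots received compound through the paddy water and were kept at that depth under greenhouse conditions. After 13–15 days, effect was rated by eye relative to controls, 0 = none and 100 = complete control.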
# blackgrass = experiment: Test C preemergence; type: in vivo, Alopecurus myosuroides; conditions: for pest or weed control at 16 g/ha / pest or weed control at 62 g/ha / pest or weed control at 125 g/ha / pest or weed control at 31 g/ha: Alopecurus myosuroides, pre-emergence; for pest or weed control at 16 g/ha / pest or weed control at 62 g/ha / pest or weed control at 125 g/ha / Blackgrass plant response rating: preemergence; for pest or weed control at 16 g/ha / pest or weed control at 62 g/ha / pest or weed control at 125 g/ha: read-out: Blackgrass plant response rating; for pest or weed control at 31 g/ha: read-out: Plant response rating, Blackgrass
# Outline: (§2)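 Whole-plant greenhouse test with surfactant-containing solvent formulation, applied preemergence to sown loam–sand pots or postemergence to 2–18 cm plants. Scored by eye 13 to 15 days on, 0–100 scale.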
# Italian ryegrass = experiment: Test C preemergence; type: in vivo, Lolium multiflorum; conditions: for pest or weed control at 16 g/ha / pest or weed control at 62 g/ha / pest or weed control at 125 g/ha / Ryegrass, Italian plant response rating: preemergence; for pest or weed control at 16 g/ha / pest or weed control at 62 g/ha / pest or weed control at 125 g/ha: read-out: Ryegrass, Italian plant response rating
# Outline: as §2
# wheat, winter = experiment: Test C preemergence; type: in vivo, Triticum aestivum; conditions: for plant injury at 16 g/ha / plant injury at 62 g/ha / plant injury at 125 g/ha / Wheat plant response rating: preemergence; for plant injury at 16 g/ha / plant injury at 62 g/ha / plant injury at 125 g/ha: read-out: Wheat plant response rating
# Outline: as §2
# galium = experiment: Test C preemergence; type: in vivo, Galium aparine; conditions: for pest or weed control at 16 g/ha / pest or weed control at 62 g/ha / pest or weed control at 125 g/ha / pest or weed control at 31 g/ha: Galium, pre-emergence; for pest or weed control at 16 g/ha / pest or weed control at 62 g/ha / pest or weed control at 125 g/ha / Galium plant response rating: preemergence; for pest or weed control at 16 g/ha / pest or weed control at 62 g/ha / pest or weed control at 125 g/ha: read-out: Galium plant response rating; for pest or weed control at 31 g/ha: read-out: Plant response rating, Galium
# Outline: as §2
# morningglory [1] = experiment: Test C preemergence; type: in vivo, Ipomoea coccinea; conditions: for pest or weed control at 16 g/ha / pest or weed control at 62 g/ha / pest or weed control at 125 g/ha / Morningglory plant response rating: preemergence; for pest or weed control at 16 g/ha / pest or weed control at 62 g/ha / pest or weed control at 125 g/ha: read-out: Morningglory plant response rating
# Outline: as §2
# waterhemp = experiment: Test C preemergence; type: in vivo, Amaranthus rudis; conditions: for pest or weed control at 16 g/ha / pest or weed control at 62 g/ha / pest or weed control at 125 g/ha / Waterhemp plant response rating: preemergence; for pest or weed control at 16 g/ha / pest or weed control at 62 g/ha / pest or weed control at 125 g/ha: read-out: Waterhemp plant response rating
# Outline: as §2
# morningglory [2] = experiment: Test C postemergence; type: in vivo, Ipomoea coccinea; conditions: for pest or weed control at 16 g/ha / pest or weed control at 125 g/ha / pest or weed control at 62 g/ha: Ipomoea, post-emergence; for pest or weed control at 16 g/ha: read-out: Plant response rating (0 to 100), Morningglory; for pest or weed control at 125 g/ha / pest or weed control at 62 g/ha / Plant response rating, Morningglory: scale 0 to 100 (0 no effect, 100 complete control); for pest or weed control at 125 g/ha / pest or weed control at 62 g/ha: read-out: Plant response rating, Morningglory
# Outline: as §2
# [3] = 16 g ai/ha, scale 0 to 100 (0 no effect, 100 complete control)
# [4] = 62 g ai/ha, scale 0 (no effect) to 100 (complete control)
# [5] = 125 g ai/ha, scale 0 (no effect) to 100 (complete control)
# [6] = Preemergence, 31 g ai/ha, scale 0 to 100, 0 no effect, 100 complete control
# [7] = Lolium multiflorum, pre-emergence, 16 g ai/ha, scale 0 to 100 (0 no effect, 100 complete control)
# [8] = Lolium multiflorum, pre-emergence, 62 g ai/ha, scale 0 (no effect) to 100 (complete control)
# [9] = Lolium multiflorum, pre-emergence, 125 g ai/ha, scale 0 (no effect) to 100 (complete control)
# [10] = Triticum aestivum, pre-emergence, 16 g ai/ha, scale 0 to 100 (0 no effect, 100 complete control)
# [11] = Triticum aestivum, pre-emergence, 62 g ai/ha, scale 0 (no effect) to 100 (complete control)
# [12] = Triticum aestivum, pre-emergence, 125 g ai/ha, scale 0 (no effect) to 100 (complete control)
# [13] = Ipomoea, pre-emergence, 16 g ai/ha, scale 0 to 100 (0 no effect, 100 complete control)
# [14] = Ipomoea, pre-emergence, 62 g ai/ha, scale 0 (no effect) to 100 (complete control)
# [15] = Ipomoea, pre-emergence, 125 g ai/ha, scale 0 (no effect) to 100 (complete control)
# [16] = Amaranthus tuberculatus, pre-emergence, 16 g ai/ha, scale 0 to 100 (0 no effect, 100 complete control)
# [17] = Amaranthus tuberculatus, pre-emergence, 62 g ai/ha, scale 0 (no effect) to 100 (complete control)
# [18] = Amaranthus tuberculatus, pre-emergence, 125 g ai/ha, scale 0 (no effect) to 100 (complete control)
# [19] = 16 g ai/ha, postemergence, 0 is no effect, 100 is complete control
# [20] = 125 g ai/ha, postemergence, visual rating
structure (smiles),measurement,setting,value
"FC(F)(F)Sc1cnn(-c2ccccc2Oc2ncc(Cl)cn2)c1 [Compound 132, 5-chloro-2-[2-[4-(trifluoromethylthio)-1H-pyrazol-1-yl]phenoxy]pyrimidine]",pest or weed control at 125 g/ha,barnyardgrass; 125 g ai/ha,50%
same,pest or weed control at 500 g/ha,barnyardgrass; 500 g ai/ha,70%
same,plant injury at 125 g/ha,wheat; 125 g ai/ha,0%
same,plant injury at 500 g/ha,wheat; 500 g ai/ha,60%
same,pest or weed control at 250 g/ha,Heteranthera limosa,0%
same,pest or weed control at 16 g/ha,blackgrass; [3],0%
same,pest or weed control at 62 g/ha,blackgrass; [4],40%
same,pest or weed control at 125 g/ha,blackgrass; [5],95%
same,pest or weed control at 31 g/ha,blackgrass; [6],5%
same,pest or weed control at 16 g/ha,Italian ryegrass; [7],0%
same,pest or weed control at 62 g/ha,Italian ryegrass; [8],5%
same,pest or weed control at 125 g/ha,Italian ryegrass; [9],30%
same,pest or weed control at 31 g/ha,"Italian ryegrass; Lolium multiflorum, pre-emergence, Preemergence, 31 g ai/ha, scale 0 to 100, 0 no effect, 100 complete control, read-out: Plant response rating, Ryegrass, Italian",0%
same,plant injury at 16 g/ha,"wheat, winter; [10]",0%
same,plant injury at 62 g/ha,"wheat, winter; [11]",0%
same,plant injury at 125 g/ha,"wheat, winter; [12]",0%
same,plant injury at 31 g/ha,"wheat, winter; Triticum aestivum, pre-emergence, Preemergence, 31 g ai/ha, scale 0 to 100, 0 no effect, 100 complete control, read-out: Plant response rating, Wheat",0%
same,pest or weed control at 16 g/ha,galium; [3],0%
same,pest or weed control at 62 g/ha,galium; [4],90%
same,pest or weed control at 125 g/ha,galium; [5],90%
same,pest or weed control at 31 g/ha,galium; [6],0%
same,pest or weed control at 16 g/ha,morningglory [1]; [13],25%
same,pest or weed control at 62 g/ha,morningglory [1]; [14],5%
same,pest or weed control at 125 g/ha,morningglory [1]; [15],5%
same,pest or weed control at 31 g/ha,"morningglory [1]; Ipomoea, pre-emergence, Preemergence, 31 g ai/ha, scale 0 to 100, 0 no effect, 100 complete control, read-out: Plant response rating, Morningglory",0%
same,pest or weed control at 16 g/ha,waterhemp; [16],85%
same,pest or weed control at 62 g/ha,waterhemp; [17],100%
same,pest or weed control at 125 g/ha,waterhemp; [18],100%
same,pest or weed control at 31 g/ha,"waterhemp; Amaranthus tuberculatus, pre-emergence, Preemergence, 31 g ai/ha, scale 0 to 100, 0 no effect, 100 complete control, read-out: Plant response rating, Waterhemp",98%
same,pest or weed control at 16 g/ha,morningglory [2]; [19],10%
same,pest or weed control at 125 g/ha,morningglory [2]; [20],65%
same,pest or weed control at 62 g/ha,"morningglory [2]; Postemergence, 62 g ai/ha",75%
Cc1cnc(Oc2cccc(C#N)c2-n2cc(I)cn2)nc1 [Compound 136],Barnyardgrass plant response rating,barnyardgrass; 125 g ai/ha,30
same,"Plant response rating, Barnyardgrass",barnyardgrass; 500 g ai/ha,90
same,Wheat plant response rating,wheat; 125 g ai/ha,0
same,"Plant response rating, Wheat",wheat; 500 g ai/ha,50
same,"Plant response rating, Ducksalad",Heteranthera limosa,70
same,Blackgrass plant response rating,blackgrass; [3],0
same,Blackgrass plant response rating,blackgrass; [4],75
same,Blackgrass plant response rating,blackgrass; [5],80
same,"Plant response rating, Blackgrass",blackgrass; [6],0
same,"Ryegrass, Italian plant response rating",Italian ryegrass; [3],0
same,"Ryegrass, Italian plant response rating",Italian ryegrass; [4],0
same,"Ryegrass, Italian plant response rating",Italian ryegrass; [5],15
same,Wheat plant response rating,"wheat, winter; [3]",0
same,Wheat plant response rating,"wheat, winter; [4]",0
same,Wheat plant response rating,"wheat, winter; [5]",0
same,Galium plant response rating,galium; [3],0
same,Galium plant response rating,galium; [4],30
same,Galium plant response rating,galium; [5],85
same,"Plant response rating, Galium",galium; [6],0
same,Morningglory plant response rating,morningglory [1]; [3],20
same,Morningglory plant response rating,morningglory [1]; [4],10
same,Morningglory plant response rating,morningglory [1]; [5],60
same,Waterhemp plant response rating,waterhemp; [3],0
same,Waterhemp plant response rating,waterhemp; [4],75
same,Waterhemp plant response rating,waterhemp; [5],100
same,"Plant response rating (0 to 100), Morningglory",morningglory [2]; [19],5
same,"Plant response rating, Morningglory",morningglory [2]; [20],40
same,"Plant response rating, Morningglory","morningglory [2]; Postemergence, 62 g ai/ha",50
"FC(F)(F)COc1cnn(-c2ccccc2Oc2ncc(Cl)cn2)c1 [Compound 138, 5-chloro-2-[2-[4-(2,2,2-trifluoroethoxy)-1H-pyrazol-1-yl]phenoxy]pyrimidine]",pest or weed control at 125 g/ha,barnyardgrass; 125 g ai/ha,80%
same,pest or weed control at 500 g/ha,barnyardgrass; 500 g ai/ha,100%
same,plant injury at 125 g/ha,wheat; 125 g ai/ha,50%
same,plant injury at 500 g/ha,wheat; 500 g ai/ha,90%
same,pest or weed control at 250 g/ha,Heteranthera limosa,90%
same,pest or weed control at 16 g/ha,blackgrass; [3],5%
same,pest or weed control at 62 g/ha,blackgrass; [4],80%
same,pest or weed control at 125 g/ha,blackgrass; [5],90%
same,pest or weed control at 31 g/ha,blackgrass; [6],20%
same,pest or weed control at 16 g/ha,Italian ryegrass; [7],0%
same,pest or weed control at 62 g/ha,Italian ryegrass; [8],20%
same,pest or weed control at 125 g/ha,Italian ryegrass; [9],60%
same,plant injury at 16 g/ha,"wheat, winter; [10]",0%
same,plant injury at 62 g/ha,"wheat, winter; [11]",5%
same,plant injury at 125 g/ha,"wheat, winter; [12]",5%
same,pest or weed control at 16 g/ha,galium; [3],90%
same,pest or weed control at 62 g/ha,galium; [4],90%
same,pest or weed control at 125 g/ha,galium; [5],100%
same,pest or weed control at 31 g/ha,galium; [6],90%
same,pest or weed control at 16 g/ha,morningglory [1]; [13],0%
same,pest or weed control at 62 g/ha,morningglory [1]; [14],10%
same,pest or weed control at 125 g/ha,morningglory [1]; [15],35%
same,pest or weed control at 16 g/ha,waterhemp; [16],100%
same,pest or weed control at 62 g/ha,waterhemp; [17],100%
same,pest or weed control at 125 g/ha,waterhemp; [18],100%
same,pest or weed control at 16 g/ha,morningglory [2]; [19],65%
same,pest or weed control at 125 g/ha,morningglory [2]; [20],85%
same,pest or weed control at 62 g/ha,"morningglory [2]; Postemergence, 62 g ai/ha",65%
